Laboratory results taken from US20190225644A1, “MRNA CAP ANALOGS AND METHODS OF MRNA CAPPING” (ModernaTX, Inc., priority 2015, published 2019).
Where “and” joins values, the source holds several entries; their conditions need not be identical. Equal values may be shown once. Read-outs that look alike come from different tables or passages of the source.

Key:
[1] = system: HeLa Lysate; assay: Cap competition assay in kinetic cell free in vitro translation (free cap analogs); format: biochemical; conditions: free cap analog 0-100 uM against Cap1-tipped eGFP modRNA, fluorescence plateau
Description: The in vitro translation assay was conducted with the HeLa 1-step coupled IVT kit (ThermoFisher Scientific, Waltham, Mass.) according to the manufacturer's instructions to assess performance of new cap analogs as free compounds or as an integral part of capped mRNA. Cap analogs with affinity to eIF4E protein may reduce protein synthesis rate in cell-free translation. Further, RNAs containing such cap analogs (“Cap-modRNA”) show different potency of protein synthesis in cell-free translation.
For competition assays, the total volume of the cell-free translation reaction was increased to 27.8 uL by addition of either water or diluted free CAP analogs in water. The stock concentration of the free CAP analogs was 1 mM. With two-fold dilutions in water, the concentration was reduced sequentially. […] The CAP analogs used in this study were either commercial products serving as reference material (TriLink, San Diego, Calif.) or compounds disclosed herein. It is hypothesized that the small molecule cap analogs interfere with the assembly of the “closed loop” in a Kd-dependent fashion.
After the fluorescent signal in cell-free translation reaction reached a stable plateau, absolute values thereof were transferred to a statistical analysis program (GraphPad Software, La Jolla, Calif.) and curve fitting or IC50 calculations were derived with settings according to the instructions of the manufacturer.
The results from the cap competition assays are illustrated in FIGS. 1A-1C and 2A-2D. In this study, each of the modRNAs used comprises 1-methyl-pseudouridine, which replaces each uridine in the RNA sequence and 5-methyl cytidine, which replaces each cytidine in the RNA sequence. Further, Table 11 includes the IC50 values of certain compounds of the disclosure.

[2] = molecular target: T1, eIF4E (Homo sapiens, UniProt P06730)
Description: (§1) A sensor chip SA (GE Healthcare) is docked into a Biacore 3000 instrument.
(§2) Compound concentration series are injected over the immobilized protein serially in increasing concentration. Interaction models are fitted globally to the experimental traces, enabling determination of Kd or KD (binding affinity; unit: M) and possibly kon (on-rate, calculated from the association phase; unit: M^−1s^−1) and koff (off-rate, calculated from the dissociation phase; unit: s^−1).
(§3) A sensor chip (SAD5001 or SA) was docked into a Biacore 3000 instrument, washed with 50 mM NaOH, 1M NaCl. Protein eIF4E was diluted in running buffer (50 mM HEPES, 150 mM KCl, 10 mM MgCl2, 2 mM TCEP) to ˜1 μM. The diluted protein solution was injected for 300-600 seconds. Typical capture levels were 5000-6000 RU.
(§4) Test compounds were solubilized in ddH2O or DMSO to 10 mM. 100 μM stocks were prepared by 100-fold dilution in running buffer (50 mM HEPES, 150 mM KCl, 10 mM MgCl2). Assay was run with or without 1% DMSO.
(§5) Data were analyzed in GeneData. Curve fit was accepted or rejected by looking at the resulting sensorgrams and steady state fits.
(§6) Assay has been validated using running buffer with and without DMSO. […] Further, newly captured protein stabilizes slowly, leading to negative responses during the dissociation phase for compounds injected over newly captured protein.

[3] = molecular target: T1, eIF4E; assay: biochemical
Description: as §1, §2, §3, §4, §5, §6

[4] = molecular target: T1, eIF4E; assay: Binding affinities to eIF4E using surface plasmon resonance (SPR); conditions: for koff: read-out: koff (s^−1)
Description: as §1, §2, §3, §4, §5, §6

T1 sequence (P06730 32-217): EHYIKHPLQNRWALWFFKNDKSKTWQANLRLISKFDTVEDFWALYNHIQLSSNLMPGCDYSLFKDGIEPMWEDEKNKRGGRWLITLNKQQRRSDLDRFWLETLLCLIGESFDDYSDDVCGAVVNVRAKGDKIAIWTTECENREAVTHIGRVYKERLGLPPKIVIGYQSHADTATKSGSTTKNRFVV

| SMILES | IC50 [1] [µM] | koff [2] [s⁻¹] | Kd [3] | τ [4] [s] | koff [4] [s⁻¹] |
| --- | --- | --- | --- | --- | --- |
| C[n+]1cn([C@@H]2O[C@H](COP(=O)(O)OP(=O)(O)OP(=O)(O)OC[C@H]3O[C@@H](n4cnc5c(=O)[nH]c(N)nc54)[C@H](O)[C@@H]3O)[C@@H](O)[C@@]2(C)O)c2nc(N)[nH]c(=O)c21 [Compound 007-1] | 179 | 1 | 11 µM | – | – |
| C[n+]1cn([C@@H]2O[C@H](COP(=O)(O)OP(=O)([O-])OP(=O)(O)OC[C@H]3O[C@@H](n4cnc5c(=O)[nH]c(N)nc54)[C@H](O)[C@@H]3O)[C@@H](O)[C@@H]2O)c2nc(N)[nH]c(=O)c21 [Compound 005-11] | 92 | – | – | – | – |
| C[n+]1cn([C@@H]2O[C@H](COP(=O)(O)OCCN(CCOP(=O)(O)OC[C@H]3O[C@@H](n4c[n+](C)c5c(=O)[nH]c(N)nc54)[C@H](O)[C@@H]3O)C(=O)OC(C)(C)C)[C@@H](O)[C@H]2O)c2nc(N)[nH]c(=O)c21 [Compound 008-25] | – | – | 300 µM | – | – |
| CO[C@@H]1[C@H](O)[C@@H](COP(=O)([O-])OP(=O)([O-])OP(=O)(O)OC[C@H]2O[C@@H](n3c[n+](C)c4c(=O)[nH]c(N)nc43)[C@H](O)[C@@H]2O)O[C@H]1n1c[n+](C)c2c(=O)[nH]c(N)nc21 [Compound 005-7] | – | 0.26 | 2.7 µM | – | – |
| CO[C@@H]1[C@H](O)[C@@H](COP(=O)(O)OP(=O)([O-])OP(=O)(O)OC[C@H]2O[C@@H](n3cnc4c(=O)[nH]c(N)nc43)[C@H](O)[C@@H]2O)O[C@H]1n1c[n+](CCOc2ccc(Cl)cc2)c2c(=O)[nH]c(N)nc21 [Compound 005-5] | 2 | 0.04 | 0.2 µM | – | – |
| Nc1nc2c(ncn2[C@@H]2O[C@H](COP(=O)(O)OP(=O)(O)OP(=O)(O)OC[C@H]3O[C@@H](c4cn(CCOc5ccc(Cl)cc5)c5c(=O)[nH]c(N)nc45)[C@H](O)[C@@H]3O)[C@@H](O)[C@H]2O)c(=O)[nH]1 [Compound 005-1] | 25 | 0.08 | – | – | – |
| BP(=O)(OP(=O)([O-])OC[C@H]1O[C@@H](n2cnc3c(=O)[nH]c(N)nc32)[C@H](O)[C@@H]1O)OP(=O)(O)OCC1CN(C)CC(n2c[n+](C)c3c(=O)[nH]c(N)nc32)O1 (stereo partly drawn) [Compound 006-30] | – | – | 1.7 µM | – | – |
| COCCO[C@@H]1[C@H](O)[C@@H](COP(=O)(O)OP(=O)([O-])OP(=O)(O)OC[C@H]2O[C@@H](n3cnc4c(=O)[nH]c(N)nc43)[C@H](OC)[C@@H]2O)O[C@H]1n1c[n+](C)c2c(=O)[nH]c(N)nc21 [Compound 005-19] | – | 0.94 | 4.2 µM | – | – |
| COCCO[C@H]1[C@H](O)[C@@H](COP(=O)(O)OP(=O)([O-])OP(=O)(O)OC[C@H]2O[C@@H](n3cnc4c(=O)[nH]c(N)nc43)[C@H](O)[C@@H]2O)O[C@H]1n1c[n+](C)c2c(=O)[nH]c(N)nc21 [Compound 005-12] | 21 | 0.9 | 4.3 µM and 4 µM | – | – |
| C[n+]1cn([C@@H]2O[C@H](COP(=O)([O-])OCCOCCOP(=O)([O-])OC[C@H]3O[C@@H](n4c[n+](C)c5c(=O)[nH]c(N)nc54)[C@H](O)[C@@H]3O)[C@@H](O)[C@H]2O)c2nc(N)[nH]c(=O)c21 [Compound 008-2] | – | – | 110 µM | – | – |
| C=CCn1c(=O)n([C@@H]2O[C@H](COP(=O)(O)OP(=O)(O)OP(=O)(O)OC[C@H]3O[C@@H](n4cnc5c(=O)[nH]c(N)nc54)[C@H](O)[C@@H]3O)[C@H]3OC(C)(C)O[C@@H]32)c2nc(N)[nH]c(=O)c21 [Compound 005-13] | 318 | – | 218 µM | – | – |
| BP(=O)(OP(=O)([O-])OC[C@H]1O[C@@H](n2c[n+](CCOc3ccc(Cl)cc3)c3c(=O)[nH]c(N)nc32)[C@H](OC)[C@@H]1O)OP(=O)(O)OC[C@H]1O[C@@H](n2cnc3c(=O)[nH]c(N)nc32)[C@H](O)[C@@H]1O (stereo partly drawn) [Compound 005-2] | – | – | 0.1 µM | 83.33 | 0.012 |
| BP(=O)(OP(=O)([O-])OC[C@H]1O[C@@H](n2c[n+](C)c3c(=O)[nH]c(N)nc32)[C@H](O)[C@@H]1O)OP(=O)(O)OC[C@H]1O[C@@H](n2cnc3c(=O)[nH]c(N)nc32)[C@H](O)[C@@H]1O (stereo partly drawn) [Compound 005-32] | – | – | 0.33 µM | 9.09 | 0.11 |
| CO[C@@H]1[C@H](O)[C@@H](COP(=O)(O)OP(=O)([O-])OP(=O)(O)OCC2O[C@@H](n3c[n+](C)c4c(=O)[nH]c(N)nc43)[C@](C)(O)[C@@H]2O)O[C@H]1n1cnc2c(=O)[nH]c(N)nc21 (stereo partly drawn) [Compound 007-38] | – | – | 11 µM | – | – |
| C[n+]1cn(C2CN(Cc3ccccc3)CC(COP(=O)(O)OP(=O)([O-])OP(=O)([O-])OC[C@H]3O[C@@H](n4c[n+](C)c5c(=O)[nH]c(N)nc54)[C@H](O)[C@@H]3O)O2)c2nc(N)[nH]c(=O)c21 (stereo partly drawn) [Compound 006-31] | – | 0.33 | 2.4 µM | – | – |
| Cn1c[n+]([C@@H]2O[C@H](COP(=O)(O)OP(=O)([O-])OP(=O)(O)OC[C@H]3O[C@@H](n4cnc5c(=O)[nH]c(N)nc54)[C@H](O)[C@@H]3O)[C@@H](O)[C@H]2O)c2nc(N)[nH]c(=O)c21 [Cap0, m7GpppG, reference compound] | 35 | – | – | – | – |
| C[n+]1cn([C@H]2C[C@H](O)[C@@H](COP(=O)(O)OP(=O)([O-])OP(=O)(O)OC[C@H]3O[C@@H](n4cnc5c(=O)[nH]c(N)nc54)[C@H](O)[C@@H]3O)O2)c2nc(N)[nH]c(=O)c21 [Compound 005-31] | – | – | 3.58 µM | – | – |
| CO[C@@H]1[C@H](O)[C@@H](COP(=O)(O)OP(=O)([O-])OP(=O)([O-])OP(=O)(O)OC[C@H]2O[C@@H](n3c[n+](C)c4c(=O)[nH]c(N)nc43)[C@H](O)[C@@H]2O)O[C@H]1n1c[n+](C)c2c(=O)[nH]c(N)nc21 [Compound 005-6] | – | 0.41 | 1.1 µM | – | – |
| C[n+]1cn([C@@H]2O[C@H](COP(=O)(O)OP(=O)([O-])OP(=O)([O-])OP(=O)(O)OC[C@H]3O[C@@H](n4c[n+](C)c5c(=O)[nH]c(N)nc54)[C@H](O)[C@@H]3O)[C@@H](O)[C@H]2O)c2nc(N)[nH]c(=O)c21 [Compound 005-9] | 9 | 0.41 | 1.1 µM and 1 µM | – | – |
| BP(=O)(OP(=O)([O-])OC[C@H]1O[C@@H](n2c[n+](C)c3c(=O)[nH]c(N)nc32)[C@H](OC)[C@@H]1O)OP(=O)(O)OC[C@H]1O[C@@H](n2cnc3c(=O)[nH]c(N)nc32)[C@H](O)[C@@H]1O (stereo partly drawn) [Compound 005-3] | – | – | 0.5 to 1.1 µM | – | – |
| CO[C@@H]1[C@H](O)[C@@H](COP(=O)([O-])OP(=O)([O-])OC[C@H]2O[C@@H](n3c[n+](C)c4c(=O)[nH]c(N)nc43)[C@H](O)[C@@H]2O)O[C@H]1n1c[n+](C)c2c(=O)[nH]c(N)nc21 [Compound 005-8] | – | 3.8 | 75 µM | – | – |
| CO[C@@H]1[C@H](O)[C@@H](COP(=O)(O)OP(=O)([O-])OP(=O)(O)OCC2CN(C)CC(n3c[n+](C)c4c(=O)[nH]c(N)nc43)O2)O[C@H]1n1cnc2c(=O)[nH]c(N)nc21 (stereo partly drawn) [Compound 006-39] | – | 1.5 | 6.7 to 8.7 µM | – | – |
| C[n+]1cn(C(CO)OC(CO)COP(=O)(O)OP(=O)(O)OP(=O)(O)OC[C@H]2O[C@@H](n3cnc4c(=O)[nH]c(N)nc43)[C@H](O)[C@@H]2O)c2nc(N)[nH]c(=O)c21 (stereo partly drawn) [Compound 006-36] | – | – | 12 µM | – | – |
| C#CCN1C[C@@H](COP(=O)([O-])OP(=O)(O)OP(=O)(O)OC[C@H]2O[C@@H](n3cnc4c(=O)[nH]c(N)nc43)[C@H](O)[C@@H]2O)O[C@@H](n2c[n+](C)c3c(=O)[nH]c(N)nc32)C1 [Compound 006-27] | – | 1 | 9.1 µM | – | – |
| CO[C@@H]1[C@H](O)[C@@H](COP(=O)(O)OP(=O)([O-])OP(=O)(O)OCC2CN(Cc3ccccc3)CC(n3c[n+](C)c4c(=O)[nH]c(N)nc43)O2)O[C@H]1n1cnc2c(=O)[nH]c(N)nc21 (stereo partly drawn) [Compound 006-40] | – | 0.34 | 1.7 µM | – | – |
| C[C@@]1(O)[C@H](O)[C@@H](COP(=O)(O)OP(=O)(O)OP(=O)(O)OC[C@H]2O[C@@H](n3cnc4c(=O)[nH]c(N)nc43)[C@H](O)[C@@H]2O)O[C@H]1n1c[n+](CCOc2ccc(Cl)cc2)c2c(=O)[nH]c(N)nc21 [Compound 007-37] | – | 0.057 | 0.1 µM | – | – |
| C[n+]1cn([C@@H]2O[C@H](COP(=O)([O-])OP(=O)([O-])OC[C@H]3O[C@@H](n4c[n+](C)c5c(=O)[nH]c(N)nc54)[C@H](O)[C@@H]3O)[C@@H](O)[C@H]2O)c2nc(N)[nH]c(=O)c21 [Compound 005-15] | – | 3.8 | 75 µM | – | – |
